Assay results as given in ChEMBL document CHEMBL1154368, “Benzothiazoles as Rho-associated kinase (ROCK-II) inhibitors” (Bioorg Med Chem Lett, 2009).

Assays:
[1] = target: T1, Rho-associated protein kinase 2 (Homo sapiens, UniProt O75116); assay: Inhibition of ROCK2
[2] = Inhibition of PKA
[3] = target: T1, Rho-associated protein kinase 2
Description: Inhibition of ROCK2 assessed as myosin light chain phosphorylation by cell-based assay

[4] = Selectivity for ROCK2 over PKA
[5] = target: Serine/threonine-protein kinase MRCK alpha (Homo sapiens, UniProt Q5VT25); assay: Inhibition of MRCKalpha
[6] = Metabolic stability in human liver microsomes assessed as half life; type: ADME, Microsome
[7] = target: Rho-associated protein kinase 1 (Homo sapiens, UniProt Q13464); assay: Inhibition of ROCK1
Rho-associated protein kinase 1, sequence (Q13464 whole entry): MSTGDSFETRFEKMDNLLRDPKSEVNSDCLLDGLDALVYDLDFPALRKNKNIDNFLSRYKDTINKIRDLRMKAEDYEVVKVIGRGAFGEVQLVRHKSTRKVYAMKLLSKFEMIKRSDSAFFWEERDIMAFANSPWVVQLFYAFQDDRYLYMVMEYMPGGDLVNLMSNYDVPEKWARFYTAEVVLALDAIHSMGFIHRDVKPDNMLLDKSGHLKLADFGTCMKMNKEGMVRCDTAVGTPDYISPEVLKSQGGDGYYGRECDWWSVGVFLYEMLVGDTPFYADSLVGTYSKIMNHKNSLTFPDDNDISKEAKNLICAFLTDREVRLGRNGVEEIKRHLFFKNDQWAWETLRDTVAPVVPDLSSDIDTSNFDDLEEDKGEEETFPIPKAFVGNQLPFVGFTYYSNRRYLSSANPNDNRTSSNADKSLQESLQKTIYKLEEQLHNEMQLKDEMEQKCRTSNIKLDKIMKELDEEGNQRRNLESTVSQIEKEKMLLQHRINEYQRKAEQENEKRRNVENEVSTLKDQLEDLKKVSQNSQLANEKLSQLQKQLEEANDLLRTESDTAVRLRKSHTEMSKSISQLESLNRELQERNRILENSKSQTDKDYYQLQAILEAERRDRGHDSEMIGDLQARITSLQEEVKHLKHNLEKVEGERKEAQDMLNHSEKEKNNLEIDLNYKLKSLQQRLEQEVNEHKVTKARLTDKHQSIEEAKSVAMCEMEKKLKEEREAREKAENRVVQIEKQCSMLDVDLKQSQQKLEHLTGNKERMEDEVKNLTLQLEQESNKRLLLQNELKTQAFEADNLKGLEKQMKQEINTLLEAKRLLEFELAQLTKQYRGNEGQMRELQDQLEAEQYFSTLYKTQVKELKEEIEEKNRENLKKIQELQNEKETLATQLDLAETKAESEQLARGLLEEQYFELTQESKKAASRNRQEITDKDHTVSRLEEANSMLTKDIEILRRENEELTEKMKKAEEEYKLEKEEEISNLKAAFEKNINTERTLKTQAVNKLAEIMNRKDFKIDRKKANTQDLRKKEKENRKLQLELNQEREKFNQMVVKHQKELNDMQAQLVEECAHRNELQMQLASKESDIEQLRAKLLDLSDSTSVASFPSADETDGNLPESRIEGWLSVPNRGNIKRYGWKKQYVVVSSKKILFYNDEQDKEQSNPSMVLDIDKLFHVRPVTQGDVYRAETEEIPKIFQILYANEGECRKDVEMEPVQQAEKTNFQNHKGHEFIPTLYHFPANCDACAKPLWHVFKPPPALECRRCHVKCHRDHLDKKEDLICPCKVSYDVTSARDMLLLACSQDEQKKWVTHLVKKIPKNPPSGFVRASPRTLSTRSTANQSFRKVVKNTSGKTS

[8] = target: Mitogen-activated protein kinase 10 (Homo sapiens, UniProt P53779); assay: Inhibition of JNK3
Mitogen-activated protein kinase 10, sequence (P53779 whole entry): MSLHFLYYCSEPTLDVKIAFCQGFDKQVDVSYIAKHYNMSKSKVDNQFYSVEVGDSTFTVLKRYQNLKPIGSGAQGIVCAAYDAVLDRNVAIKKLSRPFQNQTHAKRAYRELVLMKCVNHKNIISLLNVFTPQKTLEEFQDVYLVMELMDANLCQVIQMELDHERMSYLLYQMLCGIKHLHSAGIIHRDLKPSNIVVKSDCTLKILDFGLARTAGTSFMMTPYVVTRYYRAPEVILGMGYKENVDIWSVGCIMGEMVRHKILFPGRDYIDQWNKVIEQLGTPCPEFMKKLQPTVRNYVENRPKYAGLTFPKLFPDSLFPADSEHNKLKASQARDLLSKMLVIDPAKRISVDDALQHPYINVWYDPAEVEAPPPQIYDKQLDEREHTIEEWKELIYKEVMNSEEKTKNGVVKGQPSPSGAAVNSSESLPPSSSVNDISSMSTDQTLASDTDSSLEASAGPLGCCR

[9] = Inhibition of p38
[10] = Metabolic stability in rat liver microsomes assessed as half life; type: ADME, Microsome
[11] = Oral bioavailability in rat; type: ADME, organism-based; settings: in vivo
[12] = Clearance in rat; type: ADME, organism-based; settings: in vivo

T1 sequence (O75116 whole entry): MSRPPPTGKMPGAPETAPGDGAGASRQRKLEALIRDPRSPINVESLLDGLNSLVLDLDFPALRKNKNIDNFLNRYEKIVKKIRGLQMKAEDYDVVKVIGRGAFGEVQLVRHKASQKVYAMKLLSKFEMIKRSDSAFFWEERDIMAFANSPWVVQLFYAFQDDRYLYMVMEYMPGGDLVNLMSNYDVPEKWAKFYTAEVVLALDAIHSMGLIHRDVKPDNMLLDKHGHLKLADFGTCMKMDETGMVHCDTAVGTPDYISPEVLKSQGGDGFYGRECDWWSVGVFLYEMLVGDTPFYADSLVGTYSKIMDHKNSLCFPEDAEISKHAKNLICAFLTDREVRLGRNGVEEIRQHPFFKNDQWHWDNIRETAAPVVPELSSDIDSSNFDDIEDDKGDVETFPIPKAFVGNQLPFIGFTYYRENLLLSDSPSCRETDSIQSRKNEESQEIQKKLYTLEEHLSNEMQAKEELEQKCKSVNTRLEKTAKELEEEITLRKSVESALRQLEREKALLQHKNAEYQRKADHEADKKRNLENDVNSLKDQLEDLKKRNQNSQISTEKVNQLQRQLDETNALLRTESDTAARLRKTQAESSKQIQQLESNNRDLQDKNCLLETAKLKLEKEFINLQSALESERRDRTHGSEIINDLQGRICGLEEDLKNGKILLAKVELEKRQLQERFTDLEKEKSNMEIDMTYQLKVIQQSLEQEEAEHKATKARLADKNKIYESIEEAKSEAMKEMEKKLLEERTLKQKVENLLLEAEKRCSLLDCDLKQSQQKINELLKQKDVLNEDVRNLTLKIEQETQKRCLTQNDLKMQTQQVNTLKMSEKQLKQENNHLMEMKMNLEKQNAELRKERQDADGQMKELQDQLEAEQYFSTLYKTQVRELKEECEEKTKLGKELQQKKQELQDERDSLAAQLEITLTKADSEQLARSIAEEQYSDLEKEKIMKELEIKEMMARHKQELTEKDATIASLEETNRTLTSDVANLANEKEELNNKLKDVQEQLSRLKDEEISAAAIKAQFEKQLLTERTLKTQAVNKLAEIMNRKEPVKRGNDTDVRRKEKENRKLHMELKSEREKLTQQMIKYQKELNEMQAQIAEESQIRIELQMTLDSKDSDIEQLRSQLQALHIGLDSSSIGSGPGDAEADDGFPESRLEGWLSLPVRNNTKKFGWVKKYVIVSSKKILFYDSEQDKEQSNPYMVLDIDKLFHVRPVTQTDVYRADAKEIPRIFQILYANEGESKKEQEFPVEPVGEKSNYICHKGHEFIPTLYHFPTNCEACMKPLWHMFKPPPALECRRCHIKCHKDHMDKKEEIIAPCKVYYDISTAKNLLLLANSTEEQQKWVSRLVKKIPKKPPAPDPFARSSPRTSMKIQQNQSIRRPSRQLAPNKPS
Serine/threonine-protein kinase MRCK alpha, sequence (Q5VT25 whole entry): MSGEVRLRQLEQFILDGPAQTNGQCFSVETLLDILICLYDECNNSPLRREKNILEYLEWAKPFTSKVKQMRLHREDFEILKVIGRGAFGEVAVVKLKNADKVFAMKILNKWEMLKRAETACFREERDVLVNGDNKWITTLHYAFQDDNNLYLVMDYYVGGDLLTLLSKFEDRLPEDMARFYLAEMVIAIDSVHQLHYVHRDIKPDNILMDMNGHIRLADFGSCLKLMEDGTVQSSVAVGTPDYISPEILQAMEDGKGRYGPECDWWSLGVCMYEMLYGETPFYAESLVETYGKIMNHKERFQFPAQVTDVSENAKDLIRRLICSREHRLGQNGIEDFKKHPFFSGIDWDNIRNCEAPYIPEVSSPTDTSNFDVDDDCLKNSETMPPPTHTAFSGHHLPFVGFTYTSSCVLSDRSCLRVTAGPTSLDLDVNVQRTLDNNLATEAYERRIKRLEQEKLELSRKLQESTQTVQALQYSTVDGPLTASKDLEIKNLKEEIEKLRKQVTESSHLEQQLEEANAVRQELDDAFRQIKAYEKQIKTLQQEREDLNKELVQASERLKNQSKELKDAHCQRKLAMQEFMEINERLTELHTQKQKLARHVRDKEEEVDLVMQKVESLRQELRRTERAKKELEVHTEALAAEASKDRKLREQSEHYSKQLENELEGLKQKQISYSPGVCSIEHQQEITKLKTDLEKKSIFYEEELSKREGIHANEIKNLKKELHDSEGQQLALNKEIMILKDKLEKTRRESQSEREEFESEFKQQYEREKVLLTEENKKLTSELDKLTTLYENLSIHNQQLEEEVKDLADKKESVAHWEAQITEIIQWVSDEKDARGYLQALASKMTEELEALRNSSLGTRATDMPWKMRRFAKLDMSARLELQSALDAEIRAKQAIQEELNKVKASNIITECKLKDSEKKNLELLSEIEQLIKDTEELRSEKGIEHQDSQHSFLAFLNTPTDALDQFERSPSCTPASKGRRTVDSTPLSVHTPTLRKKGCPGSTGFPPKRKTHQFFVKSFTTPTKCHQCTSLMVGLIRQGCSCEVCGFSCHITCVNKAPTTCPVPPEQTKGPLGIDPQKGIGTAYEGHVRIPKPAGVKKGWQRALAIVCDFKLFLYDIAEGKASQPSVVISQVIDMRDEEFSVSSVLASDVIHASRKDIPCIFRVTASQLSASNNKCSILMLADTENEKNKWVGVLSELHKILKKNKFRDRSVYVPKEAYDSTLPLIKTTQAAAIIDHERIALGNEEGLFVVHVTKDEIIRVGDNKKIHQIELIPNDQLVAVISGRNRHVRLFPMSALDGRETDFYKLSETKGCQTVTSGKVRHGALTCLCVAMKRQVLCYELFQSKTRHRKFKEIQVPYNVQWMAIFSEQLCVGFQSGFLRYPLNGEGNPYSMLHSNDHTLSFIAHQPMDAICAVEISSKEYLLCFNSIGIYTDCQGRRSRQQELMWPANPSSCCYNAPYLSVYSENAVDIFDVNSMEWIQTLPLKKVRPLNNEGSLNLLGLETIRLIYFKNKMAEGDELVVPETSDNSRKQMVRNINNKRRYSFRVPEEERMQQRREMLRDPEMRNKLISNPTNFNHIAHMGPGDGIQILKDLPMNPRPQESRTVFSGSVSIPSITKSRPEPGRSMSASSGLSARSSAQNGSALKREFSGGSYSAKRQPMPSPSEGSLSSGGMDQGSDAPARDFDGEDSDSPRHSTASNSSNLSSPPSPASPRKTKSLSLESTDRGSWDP

IC50 [1] [nM] | IC50 [2] [nM] | IC50 [3] [nM] | Selectivity ratio [4] | Structure (SMILES) | also measured
59 | > 5000 | 1480 |  | COC(=O)c1ccc2c(c1)CC(c1nc3ccc(-c4cn[nH]c4)cc3s1)CO2 (centres undefined) | 
59 | > 20000 |  |  | COc1cccc(CN(C)C(=O)c2nc3ccc(-c4cn[nH]c4)cc3s2)c1 | 
32 | > 5000 | 1240 |  | COc1cc(-c2cn[nH]c2)cc2sc(C3COc4ccccc4C3)nc12 (centres undefined) | 
1200 | 7990 |  |  | Cc1cc(-c2ccc3nc(C4COc5ccccc5C4)sc3c2)ccn1 (centres undefined) | 
66 | > 5000 | 365 | > 75 | CN(C)CCOc1cc(-c2cn[nH]c2)cc2sc(C3COc4ccccc4C3)nc12 (centres undefined) | 
94 | 19600 |  |  | COc1cccc(CN(C(=O)c2nc3ccc(-c4cn[nH]c4)cc3s2)C2CC2)c1 | 
38 | 1930 | 1480 |  | Fc1ccc2c(c1)CC(c1nc3ccc(-c4cn[nH]c4)cc3s1)CO2 (centres undefined) | 
14 | 644 | > 2700 | 43 | Fc1cc(-c2cn[nH]c2)cc2sc(C3COc4ccccc4C3)nc12 (centres undefined) | 
9 | 156 | 1500 | 17 | Nc1nccc(-c2ccc3nc(C4COc5ccccc5C4)sc3c2)n1 (centres undefined) | half-life [6]: 47 min; half-life [10]: 23 min
10 | > 20000 | 871 |  | COCCN(Cc1cccc(OC)c1)C(=O)c1nc2ccc(-c3cn[nH]c3)cc2s1 | 
47 | 537 | > 2700 |  | Fc1cc2nc(C3COc4ccccc4C3)sc2cc1-c1cn[nH]c1 (centres undefined) | 
25 | 404 |  |  | Cc1n[nH]cc1-c1ccc2nc(C3COc4ccccc4C3)sc2c1 (centres undefined) | 
42 | 1100 |  | 25 | c1ccc2c(c1)CC(c1nc3ccc(-c4ccncc4)cc3s1)CO2 (centres undefined) | 
75 | 1780 |  |  | Clc1ccc2c(c1)CC(c1nc3ccc(-c4cn[nH]c4)cc3s1)CO2 (centres undefined) | 
7 | 582 | 20 | 83 | CN(C)CCNC(=O)c1ccc2c(c1)CC(c1nc3ccc(-c4cn[nH]c4)cc3s1)CO2 (centres undefined) | half-life [6]: 35 min
500 | > 5000 |  |  | c1ccc2c(c1)CC(c1nc3c(OCCC4CCOC4)cc(-c4cn[nH]c4)cc3s1)CO2 (centres undefined) | 
51 | 702 | 365 | 12 | CN(C)CCN(C)c1cc(-c2cn[nH]c2)cc2sc(C3COc4ccccc4C3)nc12 (centres undefined) | 
314 | > 5000 |  |  | c1ccc2c(c1)CC(c1nc3c(OCCN4CCOCC4)cc(-c4cn[nH]c4)cc3s1)CO2 (centres undefined) | 
93 | > 20000 |  |  | Cc1ccc2c(c1)CC(c1nc3ccc(-c4cn[nH]c4)cc3s1)CO2 (centres undefined) | 
45 | > 20000 | > 2700 |  | COc1ccc2c(c1)CC(c1nc3ccc(-c4cn[nH]c4)cc3s1)CO2 (centres undefined) | 
11 | 341 | 1550 | 30 | c1ccc2c(c1)CC(c1nc3ccc(-c4cn[nH]c4)cc3s1)CO2 (centres undefined) | 
26 | 16300 | 455 |  | CCN(Cc1cccc(OC)c1)C(=O)c1nc2ccc(-c3cn[nH]c3)cc2s1 | IC50 [5]: 7.86 µM; IC50 [7]: 180 nM; IC50 [8]: > 20 µM; IC50 [9]: > 20 µM
72 | 2680 |  |  | O=C(NCc1cccc(F)c1)c1nc2ccc(-c3cn[nH]c3)cc2s1 | 
18 | 5290 | > 2700 | 300 | COc1cccc(CNC(=O)c2nc3ccc(-c4cn[nH]c4)cc3s2)c1 | 
53 | 4640 |  |  | O=C(NCc1ccccc1)c1nc2ccc(-c3cn[nH]c3)cc2s1 | 

Structure (SMILES) | IC50 [1] [nM] | IC50 [2] [nM] | IC50 [3] [nM] | Selectivity ratio [4] | also measured
CN(C)CCCNC(=O)c1ccc2c(c1)CC(c1nc3ccc(-c4cn[nH]c4)cc3s1)CO2 (centres undefined) | 0.9 | 765 | < 4 | 847 | IC50 [5]: 9.55 µM; half-life [6]: 34 min; IC50 [7]: 2 nM; IC50 [8]: 5.46 µM; IC50 [9]: > 20 µM
COc1cccc(CN(CCN(C)C)C(=O)c2nc3ccc(-c4cn[nH]c4)cc3s2)c1 | 0.4 | 45 | < 6 | > 100 | bioavailability [11]: 0%; IC50 [5]: 0.247 µM; half-life [6]: 15 min; IC50 [7]: 3.5 nM; IC50 [8]: 13.8 µM; clearance [12]: 50 mL/min/kg; IC50 [9]: > 20 µM
